Converted amounts (≈) assume the structure as drawn. Read-outs that look alike come from different tables or passages of the source.
Legend:
[1] = In vitro permeation experiment of FP drug-in-adhesive patches in two-chamber diffusion cells; type: in vitro ADME, rabbit; conditions: for Tlag of SR-FP / Js of SR-FP / Tlag of R-FP / Js of R-FP / Tlag of S-FP / Js of S-FP: enhancer equimolar to 5% 4-TER (control: no enhancer); for Js of SR-FP / Js of R-FP / Js of S-FP: mean ± SD, n = 4
Excerpt: Male, Japanese big-eared rabbits weighting 2.5–3.0 kg were purchased from the animal experimental center of North China University of Science and Technology. The experimental process was in accordance with the ‘Ethical Guide for Laboratory Animal Investigation’ and was approved by the Animal Experimental Center Committee of North China University of Science and Technology. All efforts were made to minimize animal suffering and to limit the number of animals used.
The hair of back skin was removed by clipper and electrical shaver carefully when the rabbits were anesthetized with ether. Full thickness of back skin was excised after the rabbit was sacrificed by injecting air into the ear veins, and the subcutaneous fat tissue was carefully removed using the surgical scissor and scalpel. The integrity of the skin was confirmed by microscopic observation method. The treated rabbit skin was cut into a size of 1.5 cm × 1.5 cm and stored at –80 °C until use. Before use, it needed to be immersed in physiological saline for 20 min to thaw.
Drug-in-adhesive patch (drug loading of 5% by adhesive) was prepared by using solvent evaporation method. An appropriate amount of FP was dissolved in a suitable amount of ethyl acetate, which was later added to the adhesive and mixed thoroughly with a mechanical stirrer. The resulting solution was coated onto release liner (Scotch Pak® 9744, 3M, USA) by using lab coating unit (6025, BLD Instruments Co. Ltd., Guangdong, China). The coated laminate was dried at 50 °C for 15 min. After the solvent had been removed, it was covered with backing laminate (Scotch Pak® 9732, 3M).
Modified two-chamber diffusion cells with an effective diffusion area of 0.95 cm^2 were employed in the in vitro permeation experiment. The cells were kept at 32 °C by the circulated water bath and stirred with magnetic bars at 400 rpm. The dermis side of the skin was attached to one-half of the side-by-side diffusion cells, the FP patch was pressed on the skin with the adhesive side facing the SC, and pH 7.4 PBS was used as the receptor medium. At predetermined time points (2, 4, 6, 8, 10, 12 and 24 h), the receptor solution of 2.0 mL was withdrawn and equal volume PBS was added to maintain a constant volume of receptor solution.
The cumulative amount of each drug permeating per unit area (Q) versus time was plotted. Q24h=(3.5Ci+2.0∑i=1n−1Ci−1)/A
Q was the cumulative skin permeation amount. Ci was the concentration in the receiver compartment at time i, A was the effective diffusion area of diffusion.
The steady-state flux (Js, µg/cm^2/h) was calculated from the slope of linear region of the plot. The lag-time was determined by extrapolating the linear portion of the curve to the abscissa. Js=dQr/Adt
Enhancement ratio (ER) was used to evaluate the activity of the enhancers, which is the ratio of Q24h with enhancer to Q24h without enhancer. ER=Q24h(with enhancer)/Q24h(without enhancer)

[2] = Determination of drug solubility; type: physicochemical; conditions: pure water, 25 °C; for solubility: 48 h
Experimental: The excess SR-FP or its single enantiomer (0.01 g) were sealed to 10 mL of pure water at 25 °C in glass vials and waved for 48 h in constant temperature air bath oscillator […]. Finally, the contents were passed through the 0.45 μm microporous membrane and centrifuged at 10,000 rpm for 5 min, then aliquots for the supernatant saturated solution were diluted and analyzed by HPLC. The experiments were performed in triplicate.

[3] = Determination of drug oil-water partition coefficient (log P); type: physicochemical; conditions: n-octanol/water, 25 °C
Experimental: The same volume of water and n-octanol were mixed and shaken for 24 h at 25 °C, then the equal of water saturated n-octanol solution and n-octanol saturated aqueous solution through liquid-separation were obtained. The SR-FP or its single enantiomer (0.001 g) were added in the saturated solution, which were mixed to the ratio of 1:4, then shook for 24–48 h followed by stand for 24 h. (The shakings were in constant temperature air bath oscillator at 25 °C). Afterwards, the HPLC method was utilized to detect the concentration of the substance in the oil phase and the water phase.

[4] = In vivo pharmacokinetic study, intravenous administration; parameters: species or system rabbit; conditions: rabbits, IV of 4.8 mg/kg SR-FP, enantiomer measured in plasma
Experimental: A certain amount of FP was dissolved in a mixed solution of sterile water and Tween-80 at 2.0 mg/mL. The fresh intravenous solution was prepared just before intravenous administration.
Six male rabbits weighing 2.5 kg were selected for IV. A capacity of 4.8 mg/kg FP (0.2 g FP was dissolved in a mixed solution of pure water and Tween80) was administered to the one ear vein of rabbit, the other ear vein of rabbit was phlebotomized about 0.5 mL at 5, 10, 15, 30 min and 1, 2, 3, 4, 6, 8, 10, 12 h. The blood samples were centrifuged at 4000 rpm for 10 min and kept at –80 °C.
(§1) After being thawed and equilibrated to room temperature, an aliquot (100 μL) of plasma sample was spiked with […] (10 μL) of 40.0 μg/mL and 400 μL methanol. The samples were vortexed for 5 min and followed by centrifugation at 16,000 rpm for 10 min at 25 °C. After centrifugation, the supernatant was transferred to a clean tube and evaporated to dryness at 40 °C under a gentle stream of nitrogen. The dried samples were reconstituted with 100 μL mobile phase, vortexed and centrifuged before analysis.
(§2) Pharmacokinetic parameters were calculated using WinNonlin® software (Pharsight Corporation, San Diego, CA, USA) based on noncompartmental model, including the maximal plasma drug concentration (Cmax), the time to reach Cmax (Tmax) which were obtained from the observed data, the area under the time–concentration curve from time 0 to time t (AUC0–t) of distribution which was calculated using the linear trapezoidal rule, the mean residence time (MRT), the plasma clearance (Cl) and the apparent volume(V). Enhancement factor (Ef) was calculated from the following equation: Ef=AUC0−t(with enhancer)/AUC0−t(without enhancer)
The concentrations of drugs in the receptor medium or rabbit plasma were determined using a validated HPLC method. The HPLC system was equipped with a Shimadzu HPLC apparatus, including an LC-20AT pump, a SIL20A syringe, an SPD-20A detector, and a CTO-20A column oven. The propylparaben was used as an internal standard, and the flow rate of chromatographic analysis was set 1.0 mL/min. For in vitro analysis of SR-FP, thermo (USA) C18 column (150 mm × 4.6 mm, 5 μm particle) maintained at 40 °C was used to elute SR-FP, the mobile phase was used methanol and 1% aqueous glacial acetic acid (60:40, v/v) and the wavelength was set at 247 nm. The HPLC conditions of S-FP and R-FP were as follows: The column was CHIRALPAK®IA (4.6 mm × 250 mml, 5 μm particle diameter) of DAOCEL (Shanghai, China). The mobile phase consisted of acetonitrile and trifluoroacetic acid (0.05%, 50:50, v/v), the wavelength was set at 254 nm. […]

[5] = In vivo pharmacokinetic study, transdermal patch administration; parameters: species or system rabbit; conditions: rabbits; for chiral inversion to the other enantiomer in vivo: patch loaded with individual enantiomer, plasma (Figure 2(F))
Experimental: Thirty-six male rabbits weighing 2.5 kg were divided into six groups, and the back skin was intact without erythema. For patch administration studies, patches without or with enhancers (120 mg/kg) were stuck to the shaved area of the rabbits. They were administered as follows: (1) control group: only the SR-FP; (2) enhancer group A: prepared SR-FP patch with 5% d-4-TER; (3) enhancer group B: prepared SR-FP patch with 5% d-4-T-dC18; (4) enhancer group C: prepared SR-FP patch with 5% l-4-T-dC18; (5) enhancer group D: prepared S-FP patch with 5% d-4-T-dC18; (6) enhancer group E: prepared R-FP patch with 5% d-4-T-dC18. In order to prevent the patches fallen off, gauze and medical tape were used to fix the patches. The blood from ear vein of rabbit was collected 0.5 mL at 0.5, 1, 2, 4, 6, 8, 12, 16, 20, 24, 26, 28, 30, 32, 36 and 48 h, and the patch was removed after 24 h, then the residual drug was wiped with physiological saline. The sample was processed by the same method as IV. All animal studies were carried out in accordance with the NIH Guidelines for the Care and Use of Laboratory Animals and were also approved by the Life Science Research Center of North China University of Science and Technology.
as §1, §2
The concentrations of drugs in the receptor medium or rabbit plasma were determined using a validated HPLC method. The HPLC system was equipped with a Shimadzu HPLC apparatus, including an LC-20AT pump, a SIL20A syringe, an SPD-20A detector, and a CTO-20A column oven. The propylparaben was used as an internal standard, and the flow rate of chromatographic analysis was set 1.0 mL/min. For in vitro analysis of SR-FP, thermo (USA) C18 column (150 mm × 4.6 mm, 5 μm particle) maintained at 40 °C was used to elute SR-FP, the mobile phase was used methanol and 1% aqueous glacial acetic acid (60:40, v/v) and the wavelength was set at 247 nm. The HPLC conditions of S-FP and R-FP were as follows: The column was CHIRALPAK®IA (4.6 mm × 250 mml, 5 μm particle diameter) of DAOCEL (Shanghai, China). The mobile phase consisted of acetonitrile and trifluoroacetic acid (0.05%, 50:50, v/v), the wavelength was set at 254 nm. For in vivo analysis of S-FP and R-FP, the mobile phase consisted of acetonitrile and trifluoroacetic acid (0.05%, 35:65, v/v), and other conditions were the same to in vitro analysis.
Absolute bioavailability (F) was calculated by the following equation: F=AUCpatch·Dosei.v./AUCi.v.·Dosepatch

[6] = permeant SR-FP, patch 5% drug (w/w)
[7] = permeant R-FP, patch 5% drug (w/w)
[8] = permeant S-FP, patch 5% drug (w/w)

Row | SMILES | Tlag of SR-FP [1, 6] [h] | Js of SR-FP [1, 6] [μg/cm^2/h] | Tlag of R-FP [1, 7] [h] | Js of R-FP [1, 7] [μg/cm^2/h] | solubility [2] [µg/mL] | logP [3] | Cl [4] [L/h] | MRT [4] [h] | chiral inversion to the other enantiomer in vivo [5] | Tlag of S-FP [1, 8] [h] | Js of S-FP [1, 8] [μg/cm^2/h] | further results
1 | CC(C(=O)O)c1ccc(-c2ccccc2)c(F)c1 (centres unmarked) [SR-FP, Flurbiprofen] | 3.31 | 5.54 ± 0.37 | – | – | – | – | – | – | – | – | – | cumulative transport of SR-FP at 24 h ([1]; 0% enhancer level (w/w)): 122.93 ± 8.02 μg/cm^2; solubility at 48 h [2]: 89.1 ± 5.48 µg/mL (≈ 365 µM); logP ([3]; read-out: logP): 2.28 ± 0.04
2 | C[C@@H](C(=O)O)c1ccc(-c2ccccc2)c(F)c1 [R-FP] | – | – | 2.43 | 2.43 ± 0.18 | 49.82 ± 1.31 (≈ 204 µM) | 1.83 ± 0.09 | 0.52 ± 0.03 | 1.84 ± 0.15 | S-FP could be detected | – | – | –
3 | C[C@H](C(=O)O)c1ccc(-c2ccccc2)c(F)c1 [S-FP] | – | – | – | – | 46.39 ± 4.30 (≈ 190 µM) | 1.86 ± 0.05 | 0.30 ± 0.02 | 2.04 ± 0.23 | had not been observed | 3.82 | 2.65 ± 0.29 | –
4 | CC1=CCC(O)(C(C)C)CC1 (stereo not drawn) [d-4-TER, d-4-terpineol, reference compound] | 3.60 | 14.43 ± 3.62 | 3.58 | 7.34 ± 2.51 | – | – | – | – | – | 2.45 | 7.60 ± 1.47 | cumulative transport of SR-FP at 24 h ([1]; 3% enhancer level (w/w)): 168.14 ± 19.95 μg/cm^2; cumulative transport of SR-FP at 24 h ([1]; 5% enhancer level (w/w)): 266.01 ± 58.81 μg/cm^2; ER (Q24h with enhancer/Q24h without enhancer) for R-FP ([1]; permeant R-FP, patch 5% drug (w/w), enhancer equimolar to 5% 4-TER): 2.74; ER (Q24h with enhancer/Q24h without enhancer) for S-FP ([1]; permeant S-FP, patch 5% drug (w/w), enhancer equimolar to 5% 4-TER): 2.97; ER (Q24h with enhancer/Q24h without enhancer) for SR-FP ([1]; permeant SR-FP, patch 5% drug (w/w), enhancer equimolar to 5% 4-TER): 2.16; V of R-FP ([5]; SR-FP patch with 5% enhancer or without (control), analyte R-): 251.59 ± 56.91 L; V of S-FP ([5]; SR-FP patch with 5% enhancer or without (control), analyte S-): 99.27 ± 18.81 L
